PubChem BioAssay (NCI)
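Cultured in 96-well plates, cells were exposed to test compound for 48 hours across five concentrations. Here, GI50 denotes the concentration required for 50% inhibition of growth. TGI marks complete inhibition of growth.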

Tests used:
Assay in all cases: growth of human tumour cells (NCI), 48 h
A549 NSCLC = system: A549 NSCLC
HCT-15 colon = system: HCT-15 colon
LOX IMVI melanoma = system: LOX IMVI melanoma
NCI-H226 lung = system: NCI-H226 lung
OVCAR-5 ovarian = system: OVCAR-5 ovarian
SK-MEL-2 melanoma = system: SK-MEL-2 melanoma
SN12C renal = system: SN12C renal
SNB-75 CNS = system: SNB-75 CNS
T-47D breast = system: T-47D breast
EKVX NSCLC = system: EKVX NSCLC

CC(C)N(Cc1ccc(F)cc1)c1ccc(CO)c(Cl)c1
GI50 (A549 NSCLC): 1.03 µM
TGI (A549 NSCLC): 17.5 µM
GI50 (HCT-15 colon): 5.23 µM
TGI (HCT-15 colon): 20.7 µM
GI50 (LOX IMVI melanoma): 8.35 µM
TGI (LOX IMVI melanoma): 21.6 µM
GI50 (NCI-H226 lung): 0.054 µM
TGI (NCI-H226 lung): 0.179 µM
GI50 (OVCAR-5 ovarian): 0.0576 µM
TGI (OVCAR-5 ovarian): 0.247 µM
GI50 (SK-MEL-2 melanoma): 1.61 µM
TGI (SK-MEL-2 melanoma): 16.6 µM
GI50 (SN12C renal): 10.8 µM
TGI (SN12C renal): 23.2 µM
GI50 (SNB-75 CNS): 9.21 µM
TGI (SNB-75 CNS): 23.3 µM
GI50 (T-47D breast): 0.0645 µM
TGI (T-47D breast): 0.515 µM

C#CCNC(=O)NC(CCCCNC(=O)OCc1ccccc1)C(=O)OCc1ccccc1 (configuration not stated)
TGI (A549 NSCLC): > 100 µM
TGI (EKVX NSCLC): > 100 µM
TGI (HCT-15 colon): > 100 µM
TGI (LOX IMVI melanoma): > 88.4 µM
TGI (NCI-H226 lung): > 100 µM
TGI (OVCAR-5 ovarian): > 100 µM
TGI (SK-MEL-2 melanoma): > 75.8 µM
TGI (SN12C renal): > 81.1 µM
TGI (SNB-75 CNS): 37.3 µM
TGI (T-47D breast): > 32.4 µM

COc1ccc(-c2c3c(N)c4c(nc3nc3c2c(C)nn3-c2ccccc2)CCCC4)cc1
GI50 (A549 NSCLC): 3.01 µM
TGI (A549 NSCLC): 11 µM
GI50 (HCT-15 colon): 3.08 µM
TGI (HCT-15 colon): 10.9 µM
GI50 (LOX IMVI melanoma): 12 µM
TGI (LOX IMVI melanoma): 27 µM
GI50 (NCI-H226 lung): 19.6 µM
TGI (NCI-H226 lung): 52.5 µM
GI50 (OVCAR-5 ovarian): 10.1 µM
TGI (OVCAR-5 ovarian): 23.2 µM
GI50 (SK-MEL-2 melanoma): 2.63 µM
TGI (SK-MEL-2 melanoma): 5.95 µM
GI50 (SN12C renal): 3.72 µM
TGI (SN12C renal): 16.1 µM
GI50 (SNB-75 CNS): 14 µM
TGI (SNB-75 CNS): 31.8 µM

CC(=O)OCC(CC[CH2][Sn]([Cl])([Cl])[c]1ccccc1)OC(C)=O (configuration not stated)
GI50 (A549 NSCLC): 21.9 µM
TGI (A549 NSCLC): 53 µM
GI50 (EKVX NSCLC): 44.4 µM
TGI (EKVX NSCLC): > 100 µM
GI50 (HCT-15 colon): 17.4 µM
TGI (HCT-15 colon): 32.1 µM
GI50 (LOX IMVI melanoma): 16.8 µM
TGI (LOX IMVI melanoma): 31.6 µM
GI50 (NCI-H226 lung): 30.7 µM
TGI (NCI-H226 lung): > 100 µM
GI50 (OVCAR-5 ovarian): 15.7 µM
TGI (OVCAR-5 ovarian): 42 µM
GI50 (SK-MEL-2 melanoma): 18.8 µM
TGI (SK-MEL-2 melanoma): 36.4 µM
GI50 (SN12C renal): 21 µM
TGI (SN12C renal): 41 µM
GI50 (SNB-75 CNS): 55.8 µM
TGI (SNB-75 CNS): > 100 µM

Cn1nc(-c2ccccc2)c(C(=O)/C=C/c2ccc(Cl)cc2)c(N2CCOCC2)c1=O
TGI (A549 NSCLC): 23.1 µM
TGI (EKVX NSCLC): 27.1 µM
TGI (HCT-15 colon): 13.4 µM
TGI (LOX IMVI melanoma): 61.7 µM
TGI (SN12C renal): 29.2 µM

O=C1C(Nc2cccc(O)c2)=C(Sc2ccccc2)C(=O)N1Cc1ccccc1
GI50 (A549 NSCLC): 3.81 µM
TGI (A549 NSCLC): 15.9 µM
GI50 (EKVX NSCLC): 10.1 µM
TGI (EKVX NSCLC): 28.5 µM
GI50 (HCT-15 colon): 12.4 µM
TGI (HCT-15 colon): 38.8 µM
GI50 (LOX IMVI melanoma): 13 µM
TGI (LOX IMVI melanoma): 39.4 µM
GI50 (NCI-H226 lung): 2.55 µM
TGI (NCI-H226 lung): 22 µM
GI50 (OVCAR-5 ovarian): 18.2 µM
TGI (OVCAR-5 ovarian): 34.1 µM
GI50 (SK-MEL-2 melanoma): 11.4 µM
TGI (SK-MEL-2 melanoma): 26.7 µM
GI50 (SN12C renal): 13 µM
TGI (SN12C renal): 29.6 µM
GI50 (T-47D breast): 1.84 µM
TGI (T-47D breast): 19.9 µM

O=C(Cc1ccccc1)C(c1ccccc1)S(=O)(=O)c1ccccc1 (configuration not stated)
TGI (A549 NSCLC): > 100 µM
TGI (EKVX NSCLC): > 100 µM
TGI (HCT-15 colon): > 100 µM
TGI (LOX IMVI melanoma): > 100 µM
TGI (NCI-H226 lung): > 100 µM
TGI (OVCAR-5 ovarian): > 100 µM
TGI (SK-MEL-2 melanoma): > 100 µM
TGI (SN12C renal): > 100 µM
TGI (SNB-75 CNS): > 100 µM

Cc1ccc(-n2c(-c3cc4c([nH]c5ccccc54)c(-c4cccc(O)c4)n3)n[nH]c2=S)cc1
GI50 (A549 NSCLC): 2.34 µM
TGI (A549 NSCLC): 10.4 µM
GI50 (EKVX NSCLC): 1.95 µM
TGI (EKVX NSCLC): 11.1 µM
GI50 (HCT-15 colon): 0.61 µM
TGI (HCT-15 colon): 6.94 µM
GI50 (LOX IMVI melanoma): 0.461 µM
TGI (LOX IMVI melanoma): 1.97 µM
GI50 (NCI-H226 lung): 0.658 µM
TGI (NCI-H226 lung): 3.94 µM
GI50 (OVCAR-5 ovarian): 3.73 µM
TGI (OVCAR-5 ovarian): 17.1 µM
GI50 (SN12C renal): 0.936 µM
TGI (SN12C renal): 6.91 µM
GI50 (SNB-75 CNS): 1.34 µM
TGI (SNB-75 CNS): 6.17 µM
GI50 (T-47D breast): 1.8 µM
TGI (T-47D breast): 11.9 µM
